Each block holds one compound with its values, some of them ahead of it.
How the values were obtained:
β1,2-xylosyltransferase [1] = assay: Solubilization of xylosyltransferase from microsomes by detergents; assay type: biochemical, soybean; conditions: for Xylose Transferred to Acceptor (cpm), High Speed Supernatant / Xylose Transferred to Acceptor (cpm), Particulate Suspension: protein 10 mg/ml
Method: In order to purify this glycosyltransferase, it was necessary to solubilize the enzyme from the microsomes. A variety of detergents were tested at different concentrations for their ability to solubilize the xylosyltransferase and maintain its stability. […] The enzymatic activity in the supernatant liquid was then measured in the usual transferase assay.

β1,2-xylosyltransferase [2] = assay: Xylosyltransferase activity assay: transfer of 3H-xylose from UDP-[3H]xylose to oligosaccharide acceptor; assay type: biochemical, soybean; conditions: for Stimulation of enzyme activity / Effect of cation added to the purified enzyme (in words): 1 mM; for Stimulation of enzyme activity: enzyme dialyzed in the presence of EDTA; for Activity (cpm xylose transferred) with Particulate Enzyme / Activity (cpm xylose transferred) with Purified Enzyme: oligosaccharide as acceptor, gel filtration on Biogel P-4; for Km: purified enzyme, FIG. 8
Method: Reaction mixtures for the assay of β1,2-xylosyltransferase contained the following components in a final volume of 25 μl: 100 mM MES buffer, pH 7.0, 10 mM MnCl2, 0.2% Triton X-100, 5 mM ATP, 0.2 mM UDP-[^3H]xylose (15,000 cpm), and 4 nmol of oligosaccharide acceptor (usually GlcNAc2-Man3-GlcNAc2-tyrosinamide; see structure 4 of FIG. 6, or the asialo-agalacto-oligosaccharide from transferrin). The reaction was started by the addition of 5 μl of the enzyme solution, and incubations were usually at 37° C. for 1 hour. The reaction was stopped by the addition of 100 μl of 1% acetic acid, and the reaction mixtures were chromatographed on a column of Biogel P-4 prepared by placing 8 ml of gel into a 10 ml pipette. The columns were equilibrated with 1% acetic acid, and the product was separated from substrates by elution with 1% acetic acid containing 0.2 M NaCl.
When more purified enzyme preparations were used in the assays, the radiolabeled product could be separated from the radioactive substrate by ion-exchange chromatography on an Amberlite column (or a column of Dowex-1-Cl^−) contained in a Pasteur pipette. […] Thus the wash can be counted as a measure of radioactive xylose transferred to oligosaccharide. In these assays, it is important to be certain that the enzyme preparation is free of degradative enzymes that cleave UDP-xylose to free xylose.

β1,2-xylosyltransferase [3] = assay: Specificity of nucleoside diphosphate sugar donor for xylosyltransferase; assay type: biochemical, soybean; conditions: radioactive sugar nucleotide 20,000 cpm, 200 μM, asialo-agalactotransferrin glycopeptide acceptor, 1 hour at 37°; for cpm incorporated into oligosaccharide, Purified Enzyme: about 20 ng protein
Method: The substrate specificity of the xylosyltransferase for the nucleoside diphosphate sugar donor was also examined, using a variety of radiolabeled sugar nucleotides, as presented in Table 4. Each of these substrates was adjusted to have the same specific activity, and they were compared to each other at that activity.
Enzyme (particulate fraction or purified xylosyltransferase (about 20 ng protein) from UDP-hexanolamine-Sepharose) was incubated with radioactive sugar nucleotide (20,000 cpm; 200 μM) and asialo-agalactotransferrin glycopeptide for 1 hour at 37°. The reaction mixture was then separated on a Biogel P-4 column and radioactivity in oligasaccharide was determined.

[4] = test system: β1,2-xylosyltransferase (56 and 59 kDa bands); assay: Photoaffinity labeling of xylosyltransferase with N3-UDP[32P]-xylose; assay type: binding, soybean; conditions: for Effect of unlabeled nucleoside diphosphate sugar on radiolabel in the 56 and 59 kDa bands: 10 and 100 μM (b69 prints 0.1, 1 and 10 μM for UDP-xylose); for Effect of oligosaccharide on binding of UDP-xylose probe: FIG. 3A lanes 12 and 13
Method: In FIG. 3B, effects of various amounts of acceptor oligosaccharides on labeling with UDP-xylose probe are shown.
In order to determine which band was really the xylosyltransferase, the enzyme fraction from UDP-hexanolamine-Sepharose was incubated with azido-UDP[^32P]-xylose, and after 30 sec., the mixture was exposed to UV light to activate the azido group.
Thus, lane 1 is without oligosaccharide acceptor while lanes 2-5 are with 4, 10, 30 and 80 μM oligosaccharide 4 and lanes 6-9 with oligoscacharide 10.

fucosyltransferase = assay: Fucose incorporation from GDP-[3H]fucose into oligosaccharide 4 by soybean particulate enzyme; assay type: biochemical; conditions: oligosaccharide 4 acceptor
Method: Based on the substrate specificity for oligosaccharide acceptor, it would appear that xylose is added after the action of GlcNAc transferase I and mannosidase II but before the addition of galactose residues to the terminal GlcNAc units. Most of these types of N-linked oligosaccharides also contain an […] L-fucose on the innermost GlcNAc unit. In order to determine whether addition of xylose affects fucose transfer to the oligosaccharide, or vice versa, assays were prepared that contained oligosaccharide 4 as acceptor, radiolabeled nucleoside diphosphate sugar (i.e., either UDP-[^3H]xylose or GDP-[^3H]fucose) and either unlabeled UDP-xylose or unlabeled GDP-fucose. Thus, when the incubation contained radioactive UDP-xylose, various amounts of unlabeled GDP-fucose were added to determine whether addition of fucose would stimulate or inhibit xylose transfer. Likewise, when labeled GDP-fucose was used, the incubations contained unlabeled UDP-xylose. These incubations were done with the soybean particulate enzyme, so that both fucosyltransferase and xylosyltransferase were present.

β1,2-xylosyltransferase [5] = assay: Xylosyltransferase activity assay: transfer of 3H-xylose from UDP-[3H]xylose to oligosaccharide acceptor; assay type: biochemical, soybean; conditions: donor substrate; 5 nmoles of oligosaccharide 4; FIG. 9

Compound: C[C@H](CCC(=O)NCCC[N+](C)(C)CCCS(=O)(=O)[O-])[C@H]1CC[C@H]2[C@@H]3[C@H](O)C[C@@H]4C[C@H](O)CC[C@]4(C)[C@H]3C[C@H](O)[C@]12C [CHAPS]
Xylose Transferred to Acceptor (cpm), High Speed Supernatant (β1,2-xylosyltransferase [1]; detergent 1%): 541 cpm
Xylose Transferred to Acceptor (cpm), Particulate Suspension (β1,2-xylosyltransferase [1]; detergent 1%): 2168 cpm

Compound: CCCCCCCCCCCCCCCC[n+]1ccccc1.[Cl-] [CPC]
Xylose Transferred to Acceptor (cpm), High Speed Supernatant (β1,2-xylosyltransferase [1]; detergent 1%): 64 cpm
Xylose Transferred to Acceptor (cpm), Particulate Suspension (β1,2-xylosyltransferase [1]; detergent 1%): 1341 cpm

Stimulation of enzyme activity (β1,2-xylosyltransferase [2]): 15%
Compound: [Ca+2].[Cl-].[Cl-] [CaCl2]

Effect of cation added to the purified enzyme (in words) (β1,2-xylosyltransferase [2]): no stimulation
Compound: [Ca+2] [Ca^++]

Effect of cation added to the purified enzyme (in words) (β1,2-xylosyltransferase [2]): no stimulation
Compound: [Co+2] [Co^++]

Effect of EDTA on purified xylosyltransferase (β1,2-xylosyltransferase [2]; addition of, or dialysis against): not inhibited
Compound: O=C(O)CN(CCN(CC(=O)O)CC(=O)O)CC(=O)O [EDTA]

Effect of cation added to the purified enzyme (in words) (β1,2-xylosyltransferase [2]): strongly inhibitory
Compound: [Fe+3] [Fe^+++]

Effect of cation added to the purified enzyme (in words) (β1,2-xylosyltransferase [2]): no stimulation
Compound: [Fe+2] [Fe^++]

cpm incorporated into oligosaccharide, Particulate Enzyme (β1,2-xylosyltransferase [3]): 1033 cpm
cpm incorporated into oligosaccharide, Purified Enzyme (β1,2-xylosyltransferase [3]): 142 cpm
Effect of unlabeled GDP-fucose on xylose incorporation (β1,2-xylosyltransferase [2]; high concentrations, oligosaccharide 4 acceptor, particulate enzyme): some inhibition of xylose incorporation
Compound: C[C@@H]1O[C@H](OP(=O)(O)OP(=O)(O)OC[C@H]2O[C@@H](n3cnc4c(=O)[nH]c(N)nc43)[C@H](O)[C@@H]2O)[C@@H](O)[C@H](O)[C@@H]1O [GDP-fucose]

cpm incorporated into oligosaccharide, Particulate Enzyme (β1,2-xylosyltransferase [3]): 75 cpm
cpm incorporated into oligosaccharide, Purified Enzyme (β1,2-xylosyltransferase [3]): 59 cpm
Compound: Nc1nc2c(ncn2[C@@H]2O[C@H](COP(=O)(O)OP(=O)(O)O[C@H]3O[C@H](CO)[C@@H](O)[C@H](O)[C@@H]3O)[C@@H](O)[C@H]2O)c(=O)[nH]1 [GDP-mannose]

Compound: [Hg+2] [Hg^++]
Effect of cation added to the purified enzyme (in words) (β1,2-xylosyltransferase [2]): strongly inhibitory

Activity (cpm xylose transferred) with Particulate Enzyme (β1,2-xylosyltransferase [2]): 48 cpm
Activity (cpm xylose transferred) with Purified Enzyme (β1,2-xylosyltransferase [2]): 262 cpm
Compound: CC(=O)N[C@H]1[C@H](O[C@H]2[C@H](O)[C@@H](NC(C)=O)C(O)O[C@@H]2CO)O[C@H](CO)[C@@H](O[C@@H]2O[C@H](CO[C@H]3O[C@H](CO[C@H]4O[C@H](CO)[C@@H](O)[C@H](O)[C@@H]4O[C@H]4O[C@H](CO)[C@@H](O)[C@H](O)[C@@H]4O)[C@@H](O)[C@H](O[C@H]4O[C@H](CO)[C@@H](O)[C@H](O)[C@@H]4O[C@H]4O[C@H](CO)[C@@H](O)[C@H](O)[C@@H]4O)[C@@H]3O)[C@@H](O)[C@H](O[C@H]3O[C@H](CO)[C@@H](O)[C@H](O)[C@@H]3O[C@H]3O[C@H](CO)[C@@H](O)[C@H](O)[C@@H]3O[C@H]3O[C@H](CO)[C@@H](O)[C@H](O)[C@@H]3O)[C@@H]2O)[C@@H]1O (stereo partly shown) [Man9(GlcNAc)2]

Effect of cation added to the purified enzyme (in words) (β1,2-xylosyltransferase [2]): slight stimulation
Stimulation of enzyme activity (β1,2-xylosyltransferase [2]): 11%
Compound: [Cl-].[Cl-].[Mg+2] [MgCl2]

Effect of cation added to the purified enzyme (in words) (β1,2-xylosyltransferase [2]): slight stimulation
Compound: [Cl][Mn][Cl] [MnCl2]

Xylose Transferred to Acceptor (cpm), High Speed Supernatant (β1,2-xylosyltransferase [1]; detergent 1%): 210 cpm
Xylose Transferred to Acceptor (cpm), Particulate Suspension (β1,2-xylosyltransferase [1]; detergent 1%): 2395 cpm
Compound: CCCCCCCCO[C@@H]1O[C@H](CO)[C@@H](O)[C@H](O)[C@H]1O [Octylglucoside]

Compound: [Pb+2] [Pb^++]
Effect of cation added to the purified enzyme (in words) (β1,2-xylosyltransferase [2]): strongly inhibitory

Xylose Transferred to Acceptor (cpm), High Speed Supernatant (β1,2-xylosyltransferase [1]; detergent 1%): 1574 cpm
Xylose Transferred to Acceptor (cpm), Particulate Suspension (β1,2-xylosyltransferase [1]; detergent 1%): 1570 cpm
Compound: C[C@H](CCC(=O)NCCS(=O)(=O)O)[C@H]1CC[C@H]2[C@@H]3[C@H](O)C[C@@H]4C[C@H](O)CC[C@]4(C)[C@H]3C[C@H](O)[C@]12C [Taurocholoate]

cpm incorporated into oligosaccharide, Particulate Enzyme (β1,2-xylosyltransferase [3]): 72 cpm
cpm incorporated into oligosaccharide, Purified Enzyme (β1,2-xylosyltransferase [3]): 63 cpm
Compound: CC(=O)N[C@H]1[C@@H](OP(=O)(O)OP(=O)(O)OC[C@H]2O[C@@H](n3ccc(=O)[nH]c3=O)[C@H](O)[C@@H]2O)O[C@H](CO)[C@H](O)[C@@H]1O [UDP-GalNAc]

cpm incorporated into oligosaccharide, Particulate Enzyme (β1,2-xylosyltransferase [3]): 246 cpm
cpm incorporated into oligosaccharide, Purified Enzyme (β1,2-xylosyltransferase [3]): 128 cpm
Compound: CC(=O)N[C@H]1[C@@H](OP(=O)(O)OP(=O)(O)OC[C@H]2O[C@@H](n3ccc(=O)[nH]c3=O)[C@H](O)[C@@H]2O)O[C@H](CO)[C@@H](O)[C@@H]1O [UDP-GlcNAc]

Effect of unlabeled nucleoside diphosphate sugar on radiolabel in the 56 and 59 kDa bands [4]: did not inhibit
Compound: O=C(O)[C@H]1O[C@H](OP(=O)(O)OP(=O)(O)OC[C@H]2O[C@@H](n3ccc(=O)[nH]c3=O)[C@H](O)[C@@H]2O)[C@H](O)[C@@H](O)[C@@H]1O [UDP-glucuronic acid]

Effect of unlabeled nucleoside diphosphate sugar on radiolabel in the 56 and 59 kDa bands [4]: greatly diminished
Km (β1,2-xylosyltransferase [5]): ~0.1 µM
cpm incorporated into oligosaccharide, Particulate Enzyme (β1,2-xylosyltransferase [3]): 1479 cpm
cpm incorporated into oligosaccharide, Purified Enzyme (β1,2-xylosyltransferase [3]): 2597 cpm
Compound: O=c1ccn([C@@H]2O[C@H](COP(=O)(O)OP(=O)(O)O[C@H]3OC[C@@H](O)[C@H](O)[C@H]3O)[C@@H](O)[C@H]2O)c(=O)[nH]1 [UDP-xylose]
Effect of unlabeled UDP-xylose on incorporation of fucose into oligosaccharide (fucosyltransferase): did not affect the incorporation of fucose

Effect of oligosaccharide on binding of UDP-xylose probe [4]: greatly stimulated binding of UDP-xylose
Ability to serve as acceptor of xylose (in words) (β1,2-xylosyltransferase [2]): best acceptors
Activity (cpm xylose transferred) with Particulate Enzyme (β1,2-xylosyltransferase [2]): 3578 cpm
Activity (cpm xylose transferred) with Purified Enzyme (β1,2-xylosyltransferase [2]): 3648 cpm
Km (β1,2-xylosyltransferase [2]): ~75 µM
Compound: GlcNAc2Man3(GlcNAc)2-T [Oligosaccharide 4]

Effect of oligosaccharide on binding of UDP-xylose probe [4]: greatly stimulated binding of UDP-xylose
Ability to serve as acceptor of xylose (in words) (β1,2-xylosyltransferase [2]): best acceptors
Activity (cpm xylose transferred) with Particulate Enzyme (β1,2-xylosyltransferase [2]): 3212 cpm
Activity (cpm xylose transferred) with Purified Enzyme (β1,2-xylosyltransferase [2]): 2387 cpm
Km (β1,2-xylosyltransferase [2]): ~150 µM
Compound: GlcNAc2Man3GlcNAc(Fuc)GlcNAc-T [Oligosaccharide 10]

Ability to serve as acceptor of xylose (in words) (β1,2-xylosyltransferase [2]): completely inactive as an acceptor
Activity (cpm xylose transferred) with Purified Enzyme (β1,2-xylosyltransferase [2]): 1194 cpm
Compound: GlcNAc-Man3-5-isomer [Oligosaccharide 9]

Effectiveness as xylose acceptor as compared to oligosaccharide 4 (β1,2-xylosyltransferase [2]): about 50%
Activity (cpm xylose transferred) with Purified Enzyme (β1,2-xylosyltransferase [2]): 69 cpm
Compound: GlcNAc-Man3-5′-isomer [Oligosaccharide 8]

Activity (cpm xylose transferred) with Purified Enzyme (β1,2-xylosyltransferase [2]): 106 cpm
Compound: Transferrin: transferrin obtained from Sigma Chemical Co.

Enzymatic activity recovered in the supernatant liquid (β1,2-xylosyltransferase [1]; 1% or 2% detergent in Buffer B): at least 80%
Xylose Transferred to Acceptor (cpm), High Speed Supernatant (β1,2-xylosyltransferase [1]; detergent 0.5%): 1189 cpm
Xylose Transferred to Acceptor (cpm), Particulate Suspension (β1,2-xylosyltransferase [1]; detergent 0.5%): 2481 cpm
Xylose Transferred to Acceptor (cpm), High Speed Supernatant (β1,2-xylosyltransferase [1]; detergent 1%): 2188 cpm
Xylose Transferred to Acceptor (cpm), Particulate Suspension (β1,2-xylosyltransferase [1]; detergent 1%): 2689 cpm
Xylose Transferred to Acceptor (cpm), High Speed Supernatant (β1,2-xylosyltransferase [1]; detergent 2%): 2297 cpm
Xylose Transferred to Acceptor (cpm), Particulate Suspension (β1,2-xylosyltransferase [1]; detergent 2%): 2695 cpm
Compound: Triton x-100

From patent publication US6593462B2, “Purified β1,2-xylosyltransferase and uses thereof” (priority 1997, dated 2003)
